Test results as given in patent US6737383B1, “Herbicidal oxadiazolidines” (priority 1999, dated 2004).

Columns and labels:
pigweed = test: Test B pre/postemergence pigweed; format: in vivo, Amaranthus retroflexus
Procedure, shortened: (§1)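 Response is a visual 0-to-10 score relative to untreated plants, where 0 means no effect and 10 means complete control, taken twelve to sixteen days after application. Treatments went onto soil at planting and onto foliage of 1- to 4-leaf plants, using a surfactant-containing non-phytotoxic solvent.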

soybean = test: Test B pre/postemergence soybean; format: in vivo, Glycine max
Procedure, shortened: as §1

velvetleaf = test: Test B pre/postemergence velvetleaf; format: in vivo, Abutilon theophrasti
Procedure, shortened: as §1

purple nutsedge = test: Test B pre/postemergence purple nutsedge; format: in vivo, Cyperus rotundus
Procedure, shortened: as §1

crabgrass = test: Test B pre/postemergence crabgrass; format: in vivo, Digitaria sanguinalis
Procedure, shortened: as §1

rape = test: Test B pre/postemergence rape; format: in vivo, Brassica napus
Procedure, shortened: as §1

surinam grass = test: Test B pre/postemergence surinam grass; format: in vivo, Brachiaria decumbens
Procedure, shortened: as §1

wild oat = test: Test B pre/postemergence wild oat; format: in vivo, Avena fatua
Procedure, shortened: as §1

morningglory = test: Test B pre/postemergence morningglory; format: in vivo, Ipomoea hederacea
Procedure, shortened: as §1

wheat = test: Test B pre/postemergence wheat; format: in vivo, Triticum aestivum
Procedure, shortened: as §1

corn = test: Test B pre/postemergence corn; format: in vivo, Zea mays
Procedure, shortened: as §1

cocklebur = test: Test B pre/postemergence cocklebur; format: in vivo, Xanthium strumarium
Procedure, shortened: as §1

sugar beet = test: Test B pre/postemergence sugar beet; format: in vivo, Beta vulgaris
Procedure, shortened: as §1

bedstraw = test: Test B pre/postemergence bedstraw; format: in vivo, Galium aparine; settings: Preemergence
Procedure, shortened: as §1

blackgrass = test: Test B pre/postemergence blackgrass; format: in vivo, Alopecurus myosuroides
Procedure, shortened: as §1

giant foxtail = test: Test B pre/postemergence giant foxtail; format: in vivo, Setaria faberii
Procedure, shortened: as §1

[1] = Postemergence, Rate 62 g/ha, scale of 0 to 10, 0 is no effect, 10 is complete control
[2] = Postemergence, Rate 125 g/ha, scale 0 to 10, 0 is no effect, 10 is complete control
[3] = Postemergence, Rate 500 g/ha, scale 0 to 10, 0 is no effect, 10 is complete control
[4] = Preemergence, Rate 62 g/ha, scale 0 to 10 (0 no effect, 10 complete control)
[5] = Preemergence, Rate 125 g/ha, scale 0 to 10, 0 is no effect, 10 is complete control
[6] = Preemergence, Rate 500 g/ha, scale of 0 to 10 where 0 is no effect and 10 is complete control
[7] = Rate 250 g/ha, Postemergence, scale of 0 to 10 where 0 is no effect and 10 is complete control

## COCCOCn1c(=O)on(C(=O)N(c2ccc(Cl)cc2)C(C)C)c1=O [Compound 535]
pigweed; [1]
  Redroot pigweed plant response rating: 0
pigweed; [2]
  Redroot pigweed plant response rating: 0
pigweed; [3]
  Plant response rating, Redroot pigweed: 0
pigweed; [4]
  Redroot pigweed plant response rating: 2
pigweed; [5]
  Redroot pigweed plant response rating: 2
pigweed; Preemergence, Rate 250 g/ha
  Redroot pigweed plant response rating (0 to 10 scale): 4
pigweed; [6]
  Redroot pigweed plant response rating: 4
pigweed; [7]
  Plant response rating, Redroot pigweed: 0
soybean; [1]
  Soybean plant response rating: 3
soybean; [2]
  Soybean plant response rating: 6
soybean; [3]
  Plant response rating, Soybean: 8
soybean; [4]
  Soybean plant response rating: 0
soybean; [5]
  Soybean plant response rating: 0
soybean; Preemergence, Rate 250 g/ha
  Soybean plant response rating (0 to 10 scale): 0
soybean; [6]
  Soybean plant response rating: 0
soybean; [7]
  Plant response rating, Soybean: 6
velvetleaf; [1]
  Velvetleaf plant response rating: 0
velvetleaf; [2]
  Velvetleaf plant response rating: 0
velvetleaf; [3]
  Plant response rating, Velvetleaf: 2
velvetleaf; [4]
  Velvetleaf plant response rating: 0
velvetleaf; [5]
  Velvetleaf plant response rating: 0
velvetleaf; Preemergence, Rate 250 g/ha
  Velvetleaf plant response rating (0 to 10 scale): 2
velvetleaf; [7]
  Plant response rating, Velvetleaf: 0
Purple nutsedge; [1]
  Nutsedge plant response rating: 0
Purple nutsedge; [2]
  Nutsedge plant response rating: 0
Purple nutsedge; [3]
  Plant response rating, Nutsedge: 0
Purple nutsedge; [4]
  Nutsedge plant response rating: 0
Purple nutsedge; [5]
  Nutsedge plant response rating: 0
Purple nutsedge; Preemergence, Rate 250 g/ha
  Nutsedge plant response rating (0 to 10 scale): 0
Purple nutsedge; [6]
  Nutsedge plant response rating: 0
Purple nutsedge; [7]
  Plant response rating, Nutsedge: 0
crabgrass; [1]
  Crabgrass plant response rating: 5
crabgrass; [3]
  Plant response rating, Crabgrass: 6
crabgrass; [4]
  Crabgrass plant response rating: 10
crabgrass; [5]
  Crabgrass plant response rating: 10
crabgrass; Preemergence, Rate 250 g/ha
  Crabgrass plant response rating (0 to 10 scale): 10
crabgrass; [6]
  Crabgrass plant response rating: 10
crabgrass; [7]
  Plant response rating, Crabgrass: 5
rape; [1]
  Rape plant response rating: 0
rape; [2]
  Rape plant response rating: 0
rape; [3]
  Plant response rating, Rape: 0
rape; [4]
  Rape plant response rating: 2
rape; [5]
  Rape plant response rating: 2
rape; Preemergence, Rate 250 g/ha
  Rape plant response rating (0 to 10 scale): 2
rape; [6]
  Rape plant response rating: 3
rape; [7]
  Plant response rating, Rape: 0
Surinam grass; [1]
  B. signalgrass plant response rating: 0
Surinam grass; [2]
  B. signalgrass plant response rating: 0
Surinam grass; [3]
  Plant response rating, B. signalgrass: 3
Surinam grass; [5]
  B. signalgrass plant response rating: 0
Surinam grass; Preemergence, Rate 250 g/ha
  B. signalgrass plant response rating (0 to 10 scale, 0 is no effect, 10 is complete control): 0
Surinam grass; [6]
  B. signalgrass plant response rating: 0
Surinam grass; [7]
  Plant response rating, B. signalgrass: 0
Wild oat; [1]
  Wild oats plant response rating: 0
Wild oat; [2]
  Wild oats plant response rating: 0
Wild oat; [3]
  Plant response rating, Wild oats: 2
Wild oat; [4]
  Wild oats plant response rating: 0
Wild oat; [5]
  Wild oats plant response rating: 0
Wild oat; Preemergence, Rate 250 g/ha
  Wild oats plant response rating (0 to 10 scale): 0
Wild oat; [6]
  Wild oats plant response rating: 0
Wild oat; [7]
  Plant response rating, Wild oats: 0
morningglory; [1]
  Morningglory plant response rating: 4
morningglory; [2]
  Morningglory plant response rating: 2
morningglory; [3]
  Plant response rating, Morningglory: 3
morningglory; [4]
  Morningglory plant response rating: 0
morningglory; [5]
  Morningglory plant response rating: 0
morningglory; Preemergence, Rate 250 g/ha
  Morningglory plant response rating (0 to 10 scale): 0
morningglory; [6]
  Morningglory plant response rating: 2
morningglory; [7]
  Plant response rating, Morningglory: 2
wheat; [1]
  Wheat plant response rating: 0
wheat; [2]
  Wheat plant response rating: 0
wheat; [3]
  Plant response rating, Wheat: 2
wheat; [4]
  Wheat plant response rating: 0
wheat; [5]
  Wheat plant response rating: 0
wheat; Preemergence, Rate 250 g/ha
  Wheat plant response rating (0 to 10 scale): 0
wheat; [6]
  Wheat plant response rating: 0
wheat; [7]
  Plant response rating, Wheat: 0
corn; [1]
  Corn plant response rating: 0
corn; [2]
  Corn plant response rating: 0
corn; [3]
  Plant response rating, Corn: 0
corn; [4]
  Corn plant response rating: 0
corn; [5]
  Corn plant response rating: 0
corn; Preemergence, Rate 250 g/ha
  Corn plant response rating (0 to 10 scale): 0
corn; [6]
  Corn plant response rating: 2
corn; [7]
  Plant response rating, Corn: 0
cocklebur; [1]
  Cocklebur plant response rating: 0
cocklebur; [2]
  Cocklebur plant response rating: 0
cocklebur; [3]
  Plant response rating, Cocklebur: 0
cocklebur; [4]
  Cocklebur plant response rating: 0
cocklebur; [5]
  Cocklebur plant response rating: 0
cocklebur; Preemergence, Rate 250 g/ha
  Cocklebur plant response rating (0 to 10 scale): 0
cocklebur; [6]
  Cocklebur plant response rating: 0
cocklebur; [7]
  Plant response rating, Cocklebur: 0
Sugar beet; [1]
  Sugarbeets plant response rating: 0
Sugar beet; [2]
  Sugarbeets plant response rating: 0
Sugar beet; [3]
  Plant response rating, Sugarbeets: 0
Sugar beet; [4]
  Sugarbeets plant response rating: 4
Sugar beet; [5]
  Sugarbeets plant response rating: 4
Sugar beet; Preemergence, Rate 250 g/ha
  Sugarbeets plant response rating (0 to 10 scale): 5
Sugar beet; [7]
  Plant response rating, Sugarbeets: 0
bedstraw; Rate 62 g/ha, scale 0 to 10 (0 no effect, 10 complete control)
  Bedstraw plant response rating: 0
bedstraw; Rate 125 g/ha, scale 0 to 10, 0 is no effect, 10 is complete control
  Bedstraw plant response rating: 0
bedstraw; Rate 500 g/ha, scale of 0 to 10 where 0 is no effect and 10 is complete control
  Bedstraw plant response rating: 0
blackgrass; [1]
  Blackgrass plant response rating: 0
blackgrass; [2]
  Blackgrass plant response rating: 4
blackgrass; [3]
  Plant response rating, Blackgrass: 8
blackgrass; [5]
  Blackgrass plant response rating: 0
blackgrass; Preemergence, Rate 250 g/ha
  Blackgrass plant response rating (0 to 10 scale): 0
blackgrass; [6]
  Blackgrass plant response rating: 0
blackgrass; [7]
  Plant response rating, Blackgrass: 7
Giant foxtail; [1]
  Giant foxtail plant response rating: 5
Giant foxtail; [3]
  Plant response rating, Giant foxtail: 5
Giant foxtail; [4]
  Giant foxtail plant response rating: 10
Giant foxtail; [5]
  Giant foxtail plant response rating: 10
Giant foxtail; Preemergence, Rate 250 g/ha
  Giant foxtail plant response rating (0 to 10 scale): 10
Giant foxtail; [6]
  Giant foxtail plant response rating: 10
Giant foxtail; [7]
  Plant response rating, Giant foxtail: 5
